| melting point | SMILES |
| --- | --- |
| 135 to 140 °C | COc1ccc(CCC(=NNc2ccc(C3=NNC(=O)CC3C)cc2)c2ccc(O)cc2O)cc1OC (stereo not shown) [Example 14, 6-(4-{N′-[1-(2,4-Dihydroxy-phenyl)-3-(3,4-dimethoxy-phenyl)-propylidene]-hydrazino}-phenyl)-5-methyl-4,5-dihydro-2H-pyridazin-3-one] |
| 220 to 223 °C | COc1c(OC(C)=O)ccc(C(=NN)c2ccc(C3=NNC(=O)CC3C)cc2)c1[N+](=O)[O-] (stereo not shown) [Example 12, Acetic acid 2-Methoxy-4-{[4-(4-methyl-6-oxo-1,4,5,6-tetrahydro-pyridazin-3-yl)-phenyl]-hydrazonomethyl}-3-nitro-phenyl ester] |
| 299 to 300 °C | CC1CC(=O)NN=C1c1ccc(NN=Cc2cc([N+](=O)[O-])ccc2O)cc1 (stereo not shown) [Example 5, 6-{4-[N′-(2-Hydroxy-5-nitro-benzylidene)-hydrazino]-phenyl}-5-methyl-4,5-dihydro-2H-pyridazin-3-one] |
| 239 to 241 °C | CC1CC(=O)NN=C1c1ccc(NN=Cc2ccc(O)c(O)c2[N+](=O)[O-])cc1 (stereo not shown) [Example 9, 6-{4-[N′-(3,4-Dihydroxy-2-nitro-benzylidene)-hydrazino]-phenyl}-5-methyl-4,5-dihydro-2H-pyridazin-3-one] |
| 258 to 261 °C | CC1CC(=O)NN=C1c1ccc(NN=Cc2ccc(O)cc2)cc1 (stereo not shown) [Example 61, 6-{4-[N′-(4-Hydroxy-benzylidene)-hydrazino]-phenyl}-5-methyl-4,5-dihydro-2H-pyridazin-3-one] |
| 113 to 115 °C | CC1CC(=O)NN=C1c1ccc(NN=Cc2ccccc2C(F)(F)F)cc1 (stereo not shown) [Example 11, 6-{4-[N′-(2-trifluoromethyl-benzylidene)-hydrazino]-phenyl}-5-methyl-4,5-dihydro-2H-pyridazin-3-one] |
| 269 to 275 °C | CC(=O)Nc1ccc(C(=NN)c2ccc(C3=NNC(=O)CC3C)cc2)c(O)c1 (stereo not shown) [Example 41, N-(3-Hydroxy-4-{[4-(4-methyl-6-oxo-1,4,5,6-tetrahydro-pyridazin-3-yl)-phenyl]-hydrazonomethyl}-phenyl)-acetamide] |
| 203 to 208 °C | CCOC(=O)c1c(O)ccc(C(=NN)c2ccc(C3=NNC(=O)CC3C)cc2)c1O (stereo not shown) [Example 3, 2,6-Dihydroxy-3-{[4-(4-methyl-6-oxo-1,4,5,6-tetrahydro-pyridazin-3-yl)-phenyl]-hydrazonomethyl}-benzoic acid Ethyl Ester] |
| 216 to 217 °C | CC1CC(=O)NN=C1c1ccc(NN=Cc2ccc([N+](=O)[O-])cc2)cc1 (stereo not shown) [Example 52, 6-{4-[N′-(4-nitrobenzylidene)-hydrazino]-phenyl}-5-methyl-4,5-dihydro-2H-pyridazin-3-one] |
| 230 to 233 °C | CC1CC(=O)NN=C1c1ccc(NN=Cc2ccc(O)c([N+](=O)[O-])c2)cc1 (stereo not shown) [Example 63, 6-{4-[N′-(4-Hydroxy-3-nitro-benzylidene)-hydrazino]-phenyl}-5-methyl-4,5-dihydro-2H-pyridazin-3-one] |
| 162 to 166 °C | CC(=NNc1ccc(C2=NNC(=O)CC2C)cc1)c1cc(O)cc(O)c1 (stereo not shown) [Example 13, 6-(4-{N′-[1-(3,5-Dihydroxy-phenyl)-ethylidene]-hydrazino}-phenyl)-5-methyl-4,5-dihydro-2H-pyridazin-3-one] |
| 180 to 183 °C | COc1ccccc1C=NNc1ccc(C2=NNC(=O)CC2C)cc1 (stereo not shown) [Example 53, 6-{4-[N′-(2-Methoxy-benzylidene)-hydrazino]-phenyl}-5-methyl-4,5-dihydro-2H-pyridazin-3-one] |
| 250 to 253 °C | CC1CC(=O)NN=C1c1ccc(NN=Cc2ccccc2[N+](=O)[O-])cc1 (stereo not shown) [Example 58, 6-{4-[N′-(2-nitro-benzylidene)-hydrazino]-phenyl}-5-methyl-4,5-dihydro-2H-pyridazin-3-one] |
| 216 to 218 °C | CC1CC(=O)NN=C1c1ccc(NN=Cc2c([N+](=O)[O-])cccc2[N+](=O)[O-])cc1 (stereo not shown) |
| 299 to 302 °C | CC1CC(=O)NN=C1c1ccc(NN=C(CCC(=O)O)c2ccc(O)cc2O)cc1 (stereo not shown) [Example 64, 4-(2,4-Dihydroxy-phenyl)-4-{[4-(4-methyl-6-oxo-1,4,5,6-tetrahydro-pyridazin-3-yl)-phenyl]-hydrazono}-butyric acid] |
| 265 to 268 °C | CC1CC(=O)NN=C1c1ccc(NN=Cc2ccccc2O)cc1 (stereo not shown) [Example 54, 6-{4-[N′-(2-Hydroxy-benzylidene)-hydrazino]-phenyl}-5-methyl-4,5-dihydro-2H-pyridazin-3-one] |
| 262 to 266 °C | CCc1c(O)ccc(C=NNc2ccc(-c3ccc(=O)n(C)n3)cc2)c1O [Example 28, 6-{4-[N′-(2,4-Dihydroxy-3-ethylbenzylidene)hydrazino]phenyl}-2-methyl-2H-pyridazin-3-one] |
| 278 to 283 °C | O=c1[nH]nc(-c2ccc(NN=Cc3ccc(O)cc3O)cc2)c2ccccc12 [Example 18, 4-{4-[N′-(2,4-Dihydroxy-benzylidene)-hydrazino]-phenyl}-2H-phthalazin-1-one] |
| 210 to 213 °C | COc1cccc(C=NNc2ccc(C3=NNC(=O)CC3C)cc2)c1O (stereo not shown) [Example 57, 6-{4-[N′-(2-Hydroxy-3-methoxy-benzylidene)-hydrazino]-phenyl}-5-methyl-4,5-dihydro-2H-pyridazin-3-one] |
| 278 to 280 °C | CC1CC(=O)NN=C1c1ccc(NN=Cc2ccc([N+](=O)[O-])cc2[N+](=O)[O-])cc1 (stereo not shown) |

Second part, the molecule before the results:

| SMILES | melting point |
| --- | --- |
| O=c1[nH]nc(-c2ccc(NN=C(c3ccc(O)cc3)c3ccc(O)cc3O)cc2)c2ccccc12 [Example 16, 4-(4-{N′-[(2,4-Dihydroxy-phenyl)-(4-hydroxy-phenyl)-methylene]-hydrazino}-phenyl)-2H-phthalazin-1-one] | 150 to 160 °C |
| O=c1[nH]nc(-c2ccc(NN=C(c3ccccc3)c3ccc(O)cc3O)cc2)c2ccccc12 [Example 15, 4-(4-{N′-[(2,4-Dihydroxy-phenyl)-phenyl-methylene]-hydrazino}-phenyl)-2H-phthalazin-1-one] | 160 to 170 °C |
| CCC1CC(=O)NN=C1c1ccc(NN=Cc2ccc(O)cc2O)cc1 (stereo not shown) [Example 36, 6-{4-[N′-(2,4-Dihydroxy-benzylidene)-hydrazino]-phenyl}-5-ethyl-4,5-dihydro-2H-pyridazin-3-one] | 270 to 275 °C |
| CC1CC(=O)NN=C1c1ccc(NN=C(CCCC(=O)O)c2ccc(O)cc2O)cc1 (stereo not shown) [Example 66, 5-(2,4-Dihydroxy-phenyl)-5-{[4-(4-methyl-6-oxo-1,4,5,6-tetrahydro-pyridazin-3-yl)-phenyl]-hydrazono}-pentanoic acid] | 235 to 240 °C |
| CC1CC(=O)NN=C1c1ccc(NN=Cc2cc(O)ccc2O)cc1 (stereo not shown) [Example 8, 6-{4-[N′-(2,5-Dihydroxy-benzylidene)-hydrazino]-phenyl}-5-methyl-4,5-dihydro-2H-pyridazin-3-one] | 317 to 320 °C |
| CC1CC(=O)NN=C1c1ccc(C(=NN)c2cccc(C#N)c2)cc1 (stereo not shown) [Example 20, 3-{[4-(4-Methyl-6-oxo-1,4,5,6-tetrahydropyridazin-3-yl)phenyl]-hydrazonomethyl}-benzonitrile] | 220 to 224 °C |
| CC(=O)c1c(O)ccc(C=NNc2ccc(C3=NNC(=O)CC3C)cc2)c1O (stereo not shown) [Example 39, 6-{4-[N′-(3-Acetyl-2,4-dihydroxy-benzylidene)-hydrazino]-phenyl}-5-methyl-4,5-dihydro-2H-pyridazin-3-one] | 268 to 270 °C |
| CC1CC(=O)NN=C1c1ccc(C(=NN)c2ccc(O)c(C(=O)O)c2O)cc1 (stereo not shown) [Example 56, 2,6-Dihydroxy-3-{[4-(4-methyl-6-oxo-1,4,5,6-tetrahydro-pyridazin-3-yl)-phenyl]-hydrazonomethyl}-benzoic acid] | 215 to 218 °C |
| CCCCc1c(O)ccc(C=NNc2ccc(C3=NNC(=O)CC3C)cc2)c1O (stereo not shown) [Example 44, 6-{4-[N′-(3-Butyl-2,4-dihydroxy-benzylidene)-hydrazino]-phenyl}-5-methyl-4,5-dihydro-2H-pyridazin-3-one] | 218 °C |
| CC1CC(=O)NN=C1c1ccc(NN=Cc2cccc(O)c2O)cc1 (stereo not shown) [Example 7, 6-{4-[N′-(2,3-Dihydroxy-benzylidene)-hydrazino]-phenyl}-5-methyl-4,5-dihydro-2H-pyridazin-3-one] | 245 to 247 °C |
| Cn1nc(-c2ccc(NN=C(CCC(=O)O)c3ccc(O)cc3O)cc2)ccc1=O [Example 29, 4-(2,4-Dihydroxyphenyl)-4-{[4-(1-methyl-6-oxo-1,6-dihydropyridazin-3-yl)phenyl]hydrazono}butyric acid] | 138 to 141 °C |
| CCC(=NNc1ccc(-c2ccc(=O)n(C)n2)cc1)c1ccc(O)cc1O [Example 27, 6-{4-{N′-[1-(2,4-Dihydroxyphenyl)propylidene]hydrazino}phenyl}-2-methyl-2H-pyridazin-3-one] | 225 to 233 °C |
| COc1c(O)ccc(C(C)=NNc2ccc(C3=NNC(=O)CC3C)cc2)c1[N+](=O)[O-] (stereo not shown) [Example 67, 6-(4-{N′-[1-(4-Hydroxy-3-methoxy-2-nitro-phenyl)-ethylidene]-hydrazino}-phenyl)-5-methyl-4,5-dihydro-2H-pyridazin-3-one] | 251 to 254 °C |
| CC1CC(=O)NN=C1c1ccc(NN=Cc2ccc(S(C)(=O)=O)cc2)cc1 (stereo not shown) [Example 19, 6-{4-[N′-(4-Methanesulfonylbenzylidene)hydrazino]phenyl}-5-methyl-4,5-dihydro-2H-pyridazin-3-one] | 130 to 137 °C |
| O=c1[nH]nc(-c2ccc(NN=C(c3ccc(O)cc3O)c3ccc(O)cc3O)cc2)c2ccccc12 [Example 17, 4-(4-{N′-[Bis-(2,4-dihydroxy-phenyl)-methylene]-hydrazino}-phenyl)-2H-phthalazin-1-one] | 140 to 146 °C |
| CC1CC(=O)NN=C1c1ccc(NN=Cc2ccc(Cl)cc2Cl)cc1 (stereo not shown) [Example 42, 6-{4-[N′-(2,4-Dichloro-benzylidene)-hydrazino]-phenyl}-5-methyl-4,5-dihydro-2H-pyridazin-3-one] | 252 to 254 °C |
| CC1CC(=O)NN=C1c1ccc(C(=NN)c2ccc(C#N)cc2)cc1 (stereo not shown) [Example 60, 4-{[4-(4-Methyl-6-oxo-1,4,5,6-tetrahydro-pyridazin-3-yl)-phenyl]-hydrazonomethyl}-benzonitrile] | 246 to 248 °C |

Reference: patent publication US6699868B2, “Pyridazinyl phenyl hydrazones useful against congestive heart failure” (Orion Corporation, priority 2000, dated 2004)
